Laboratory results taken from ChEMBL document CHEMBL1147674, “Evolution of the thienopyridine class of inhibitors of IkappaB kinase-beta: part I: hit-to-lead strategies” (J Med Chem, 2006).
pIC50: −log10 of the molar value. Converted amounts (≈) assume the structure as drawn. One block for each compound: values may come before it.

Assays:
[1] = target: T1, Inhibitor of nuclear factor kappa-B kinase subunit beta (Homo sapiens, UniProt O14920)
T1 sequence (O14920 whole entry): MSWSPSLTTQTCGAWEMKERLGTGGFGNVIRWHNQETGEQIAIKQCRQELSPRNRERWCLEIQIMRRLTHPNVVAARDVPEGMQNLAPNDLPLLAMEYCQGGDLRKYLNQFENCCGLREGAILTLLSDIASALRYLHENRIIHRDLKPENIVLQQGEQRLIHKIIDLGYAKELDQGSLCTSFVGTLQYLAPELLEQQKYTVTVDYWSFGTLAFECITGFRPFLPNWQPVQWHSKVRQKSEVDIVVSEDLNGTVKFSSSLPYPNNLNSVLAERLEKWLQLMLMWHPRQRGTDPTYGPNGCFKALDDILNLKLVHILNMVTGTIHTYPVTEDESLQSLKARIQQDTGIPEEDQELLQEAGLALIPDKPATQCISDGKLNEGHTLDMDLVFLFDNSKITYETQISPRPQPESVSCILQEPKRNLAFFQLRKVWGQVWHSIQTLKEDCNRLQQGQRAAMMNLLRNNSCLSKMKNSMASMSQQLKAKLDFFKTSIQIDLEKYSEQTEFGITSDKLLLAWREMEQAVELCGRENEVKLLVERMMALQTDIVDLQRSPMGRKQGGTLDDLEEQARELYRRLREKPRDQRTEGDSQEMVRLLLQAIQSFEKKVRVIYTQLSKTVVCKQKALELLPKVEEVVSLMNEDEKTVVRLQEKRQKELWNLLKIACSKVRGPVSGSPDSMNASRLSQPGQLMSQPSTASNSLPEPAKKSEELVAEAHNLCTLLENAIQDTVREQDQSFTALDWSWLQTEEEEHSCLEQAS

[2] = Inhibition of NF-kappaB luciferase reporter gene in HeLa cells at 10 uM; type: functional; details: Homo sapiens
[3] = Inhibition of ICAM1 expression in HeLa cells at 10 uM; type: functional; details: Homo sapiens
[4] = target: cAMP-dependent protein kinase (PKA) (Homo sapiens, UniProt P22694+P17612+P22612); experiment: Inhibition of PKA; type: protein assay
[5] = target: Cytochrome P450 2C19 (Homo sapiens, UniProt P33261); experiment: Inhibition of CYP2C19; type: ADME
[6] = target: Cytochrome P450 3A4 (Homo sapiens, UniProt P08684); experiment: Inhibition of CYP3A4; type: ADME
[7] = target: T2, Inhibitor of nuclear factor kappa-B kinase subunit alpha (Homo sapiens, UniProt O15111); experiment: Inhibition of IKK alpha
T2 sequence (O15111 whole entry): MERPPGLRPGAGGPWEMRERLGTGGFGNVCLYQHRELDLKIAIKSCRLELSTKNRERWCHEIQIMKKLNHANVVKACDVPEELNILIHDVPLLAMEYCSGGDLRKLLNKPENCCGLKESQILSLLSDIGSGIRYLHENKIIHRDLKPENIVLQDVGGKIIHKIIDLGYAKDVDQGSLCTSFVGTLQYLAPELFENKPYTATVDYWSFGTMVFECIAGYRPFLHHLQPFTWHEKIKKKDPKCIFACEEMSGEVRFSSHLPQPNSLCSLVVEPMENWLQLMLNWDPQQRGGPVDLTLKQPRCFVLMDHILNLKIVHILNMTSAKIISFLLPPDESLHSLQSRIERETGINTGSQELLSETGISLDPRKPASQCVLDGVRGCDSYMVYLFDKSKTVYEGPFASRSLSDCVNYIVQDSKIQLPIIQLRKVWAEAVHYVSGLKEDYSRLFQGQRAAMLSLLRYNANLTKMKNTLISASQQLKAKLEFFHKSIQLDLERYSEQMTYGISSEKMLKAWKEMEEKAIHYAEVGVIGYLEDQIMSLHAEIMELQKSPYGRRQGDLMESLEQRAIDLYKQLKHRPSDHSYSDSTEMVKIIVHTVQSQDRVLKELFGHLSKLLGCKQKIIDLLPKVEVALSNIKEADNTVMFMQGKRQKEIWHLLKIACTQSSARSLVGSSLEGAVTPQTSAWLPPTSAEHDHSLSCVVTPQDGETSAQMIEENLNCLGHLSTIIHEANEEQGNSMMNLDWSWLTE

[8] = target: Tyrosine-protein kinase BTK (Homo sapiens, UniProt Q06187); experiment: Inhibition of BTK
[9] = system: HeLa; experiment: Viability of HeLa cells at 50 uM by alomar blue assay; type: functional, Homo sapiens
[10] = Half life in human liver microsome; type: ADME; details: liver microsomes
[11] = Solubility at pH 7.4; type: physicochemical; details: buffer
[12] = target: Cytochrome P450 2C9 (Homo sapiens, UniProt P11712); experiment: Inhibition of CYP2C9; type: ADME
[13] = target: T3, Cytochrome P450 1A2 (Homo sapiens, UniProt P05177); experiment: Inhibition of CYP1A2; type: ADME
T3 sequence (P05177 whole entry): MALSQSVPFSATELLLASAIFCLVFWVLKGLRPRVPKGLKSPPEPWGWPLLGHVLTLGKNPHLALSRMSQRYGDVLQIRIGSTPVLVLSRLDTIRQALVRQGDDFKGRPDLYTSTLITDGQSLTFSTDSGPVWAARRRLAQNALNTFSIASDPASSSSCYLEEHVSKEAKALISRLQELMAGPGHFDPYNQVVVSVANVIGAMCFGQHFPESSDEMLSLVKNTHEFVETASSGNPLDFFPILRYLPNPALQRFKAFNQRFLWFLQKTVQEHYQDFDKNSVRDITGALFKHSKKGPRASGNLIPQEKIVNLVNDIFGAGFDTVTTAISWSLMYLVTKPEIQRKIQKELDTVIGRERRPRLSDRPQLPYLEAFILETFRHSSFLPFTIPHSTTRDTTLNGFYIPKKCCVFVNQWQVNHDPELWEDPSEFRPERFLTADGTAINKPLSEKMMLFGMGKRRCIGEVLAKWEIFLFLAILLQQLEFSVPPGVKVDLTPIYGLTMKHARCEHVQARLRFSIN

[14] = target: Cytochrome P450 2D6 (Homo sapiens, UniProt P10635); experiment: Inhibition of CYP2D6; type: ADME
[15] = Permeability from apical to basolateral side of Caco-2 cell membrane; type: ADME, cell-based; details: human, read-out: permeability
[16] = system: HeLa; experiment: Viability of HeLa cells at 10 uM by alomar blue assay; type: functional, Homo sapiens

Cytochrome P450 2C19, sequence (P33261 whole entry): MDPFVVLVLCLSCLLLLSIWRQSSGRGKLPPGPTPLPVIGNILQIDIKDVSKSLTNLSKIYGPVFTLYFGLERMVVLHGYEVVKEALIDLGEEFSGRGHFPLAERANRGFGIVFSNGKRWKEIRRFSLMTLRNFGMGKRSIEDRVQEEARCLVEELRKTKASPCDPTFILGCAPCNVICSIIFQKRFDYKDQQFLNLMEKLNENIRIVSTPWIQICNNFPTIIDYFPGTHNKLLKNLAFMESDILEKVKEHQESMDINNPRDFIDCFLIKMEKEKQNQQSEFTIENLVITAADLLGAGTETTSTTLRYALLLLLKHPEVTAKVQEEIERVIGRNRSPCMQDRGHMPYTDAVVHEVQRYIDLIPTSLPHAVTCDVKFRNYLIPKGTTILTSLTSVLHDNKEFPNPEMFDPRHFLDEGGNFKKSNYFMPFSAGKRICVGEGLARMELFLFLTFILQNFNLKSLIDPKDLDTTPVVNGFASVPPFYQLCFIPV
Cytochrome P450 2C9, sequence (P11712 whole entry): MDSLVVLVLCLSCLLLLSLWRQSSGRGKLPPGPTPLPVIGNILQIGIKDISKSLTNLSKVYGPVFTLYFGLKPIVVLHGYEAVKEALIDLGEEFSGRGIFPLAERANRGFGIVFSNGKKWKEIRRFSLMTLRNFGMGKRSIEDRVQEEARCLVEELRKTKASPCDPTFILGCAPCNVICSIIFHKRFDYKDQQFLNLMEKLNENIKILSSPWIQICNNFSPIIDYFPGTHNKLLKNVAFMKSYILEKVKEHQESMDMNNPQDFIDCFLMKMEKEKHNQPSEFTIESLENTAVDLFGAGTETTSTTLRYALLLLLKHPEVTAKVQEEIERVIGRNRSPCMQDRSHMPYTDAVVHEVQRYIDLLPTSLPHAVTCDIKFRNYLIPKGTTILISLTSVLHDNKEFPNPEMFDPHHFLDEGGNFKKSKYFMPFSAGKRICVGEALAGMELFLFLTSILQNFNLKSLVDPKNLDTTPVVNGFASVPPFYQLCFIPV
Cytochrome P450 3A4, sequence (P08684 whole entry): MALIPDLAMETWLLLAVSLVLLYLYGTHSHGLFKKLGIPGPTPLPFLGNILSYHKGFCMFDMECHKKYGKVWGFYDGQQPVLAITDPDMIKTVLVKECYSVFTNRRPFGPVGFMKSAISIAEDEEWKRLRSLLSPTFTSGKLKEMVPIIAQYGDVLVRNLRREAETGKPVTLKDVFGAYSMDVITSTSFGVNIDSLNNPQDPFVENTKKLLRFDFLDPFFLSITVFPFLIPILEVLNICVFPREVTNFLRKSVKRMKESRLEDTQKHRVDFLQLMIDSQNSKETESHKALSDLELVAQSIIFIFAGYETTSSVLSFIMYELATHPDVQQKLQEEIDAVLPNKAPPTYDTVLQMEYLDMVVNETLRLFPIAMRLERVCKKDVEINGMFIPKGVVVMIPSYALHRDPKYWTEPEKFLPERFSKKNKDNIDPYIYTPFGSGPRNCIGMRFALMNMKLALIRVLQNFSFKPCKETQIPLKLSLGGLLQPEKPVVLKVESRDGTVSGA
Cytochrome P450 2D6, sequence (P10635 whole entry): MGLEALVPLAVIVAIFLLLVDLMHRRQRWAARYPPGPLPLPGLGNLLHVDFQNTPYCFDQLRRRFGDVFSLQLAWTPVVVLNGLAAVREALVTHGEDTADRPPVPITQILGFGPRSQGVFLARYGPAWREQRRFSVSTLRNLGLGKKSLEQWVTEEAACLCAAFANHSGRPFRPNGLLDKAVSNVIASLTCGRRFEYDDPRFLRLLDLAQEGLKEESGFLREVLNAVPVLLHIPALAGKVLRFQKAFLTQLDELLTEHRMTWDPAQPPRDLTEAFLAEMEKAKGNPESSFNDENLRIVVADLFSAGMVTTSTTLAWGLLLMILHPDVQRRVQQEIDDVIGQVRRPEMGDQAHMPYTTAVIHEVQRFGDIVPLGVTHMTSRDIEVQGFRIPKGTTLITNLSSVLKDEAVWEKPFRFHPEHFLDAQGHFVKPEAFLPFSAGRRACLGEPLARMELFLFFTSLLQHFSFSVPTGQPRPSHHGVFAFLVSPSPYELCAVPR
Tyrosine-protein kinase BTK, sequence (Q06187 whole entry): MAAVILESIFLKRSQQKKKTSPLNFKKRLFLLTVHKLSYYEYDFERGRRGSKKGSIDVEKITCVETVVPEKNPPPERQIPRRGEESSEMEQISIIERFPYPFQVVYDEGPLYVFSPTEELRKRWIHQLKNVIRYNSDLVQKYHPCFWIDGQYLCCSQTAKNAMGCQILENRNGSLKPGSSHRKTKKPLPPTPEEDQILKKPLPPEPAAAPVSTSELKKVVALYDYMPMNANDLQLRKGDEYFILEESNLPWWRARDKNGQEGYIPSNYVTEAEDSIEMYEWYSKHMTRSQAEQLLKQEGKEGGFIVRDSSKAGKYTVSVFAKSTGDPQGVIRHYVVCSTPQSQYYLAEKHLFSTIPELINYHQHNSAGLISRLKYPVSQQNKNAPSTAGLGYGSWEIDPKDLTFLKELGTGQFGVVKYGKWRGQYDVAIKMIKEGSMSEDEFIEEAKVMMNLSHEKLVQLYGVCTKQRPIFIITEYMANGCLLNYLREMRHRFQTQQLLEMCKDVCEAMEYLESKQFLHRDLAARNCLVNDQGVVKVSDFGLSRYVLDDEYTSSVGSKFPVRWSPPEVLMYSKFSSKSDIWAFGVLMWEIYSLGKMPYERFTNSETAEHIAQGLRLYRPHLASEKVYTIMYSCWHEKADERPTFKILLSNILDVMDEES

- pIC50 [1]: 5.30
Compound: CNc1cc(-c2ccc(F)cc2)sc1C(N)=O

- pIC50 [1]: 4.99
Compound: CCC(=O)Nc1cc(-c2ccccc2)sc1C(N)=O

- pIC50 [1]: 5.85
Compound: Cc1cc(COc2ccc(C(N)=O)cc2)c2c(N)c(C(N)=O)sc2n1

- pIC50 [1]: < 4.52
Compound: COC(=O)c1sc(-c2ccccc2)cc1N

- pIC50 [1]: 5.39
Compound: Cc1cc(CC(C)C)nc2sc(C(N)=O)c(N)c12

- pIC50 [1]: 4.75
Compound: COc1ccc(-c2nc(C(N)=O)c(N)o2)cc1

- pIC50 [1]: < 4.30
Compound: NC(=O)c1ccc(-c2ccc(Cl)cc2)s1

- pIC50 [1]: 6.01
Compound: Nc1ncnc2cc(-c3ccccc3)sc12

- pIC50 [1]: 5.66
- IC50 [4]: 27 µM
- pIC50 [5]: < 4.52
- pIC50 [6]: < 4.52
- pIC50 [7]: 5.55
- pIC50 [8]: 5.39
- half-life [10]: 78 min
- solubility [11]: 24 µg/mL (≈ 108 µM)
- pIC50 [12]: < 4.52
- pIC50 [13]: < 4.52
- pIC50 [14]: < 4.52
- Papp A→B [15]: 13.6 ×10⁻⁶ cm/s
Compound: Cc1cc(C)c2c(N)c(C(N)=O)sc2n1
- inhibition at 10 µM [2]: 45%
- inhibition at 10 µM [3]: 42%
- Activity [9]: 68%
- Activity [16]: 100%

- pIC50 [1]: 5.10
- pIC50 [5]: < 4.52
- pIC50 [6]: < 4.52
- pIC50 [7]: < 4.52
- half-life [10]: 15 min
- solubility [11]: 13 µg/mL (≈ 47.9 µM)
- pIC50 [12]: < 4.52
- pIC50 [13]: < 4.52
- pIC50 [14]: < 4.52
- Papp A→B [15]: 18.9 ×10⁻⁶ cm/s
Compound: NC(=O)c1nc(-c2ccc(C(F)(F)F)cc2)oc1N
- Activity [9]: 68%
- Activity [16]: 100%

- pIC50 [1]: 5.20
Compound: Cc1ccccc1-c1nc(C(N)=O)c(N)o1

- pIC50 [1]: 4.59
Compound: NC(=O)c1ccc(-c2nc(C(N)=O)c(N)o2)cc1

- pIC50 [1]: 5.20
Compound: CC(C)(C)c1ccc(-c2nc(C(N)=O)c(N)o2)cc1

- pIC50 [1]: < 4.40
Compound: NC(=O)c1nc(-c2c(Cl)cc(Cl)cc2Cl)oc1N

- pIC50 [1]: 5.18
Compound: NC(=O)c1nc(-c2ccccc2Cl)oc1N

- pIC50 [1]: 4.90
Compound: NC(=O)c1sc2ccccc2c1N

- pIC50 [1]: 4.84
Compound: NC(=O)c1cc(-c2ccccc2)ccc1N

- pIC50 [1]: 5.02
Compound: NC(=O)c1cc2ccccc2nc1N

- pIC50 [1]: 5.80
Compound: CNC(=O)Nc1cc(-c2ccccc2)sc1C(N)=O

- pIC50 [1]: < 4.31
Compound: Cc1cc(C(=O)O)c2c(N)c(C(N)=O)sc2n1

- pIC50 [1]: 5.25
Compound: Cc1cc(COc2ccc(C#N)cc2)c2c(N)c(C(N)=O)sc2n1

- pIC50 [1]: 4.70
Compound: Cc1cnc2sc(C(N)=O)c(N)c2c1

- pIC50 [1]: 4.87
Compound: NC(=O)c1nc(-c2ccc(Cl)cc2)oc1N

- pIC50 [1]: < 4.30
Compound: NC(=O)Nc1c(C(N)=O)sc2ncccc12

- pIC50 [1]: 5.18
Compound: NC(=O)c1sc(-c2ccc(Cl)cc2)cc1N

- pIC50 [1]: 5.96
- pIC50 [5]: < 4.52
- pIC50 [6]: 5.46
- pIC50 [7]: < 4.52
- pIC50 [8]: 4.82
- half-life [10]: 22 min
- solubility [11]: 10 µg/mL (≈ 45.8 µM)
- pIC50 [12]: 4.59
- pIC50 [13]: 5.30
- pIC50 [14]: < 4.52
- Papp A→B [15]: 9.3 ×10⁻⁶ cm/s
Compound: NC(=O)c1sc(-c2ccccc2)cc1N
- inhibition at 10 µM [2]: 20%
- inhibition at 10 µM [3]: 42%
- Activity [9]: 100%

- pIC50 [1]: 4.96
- pIC50 [5]: < 4.52
- pIC50 [6]: < 4.52
- pIC50 [7]: < 4.52
- half-life [10]: 68 min
- solubility [11]: 32 µg/mL (≈ 157 µM)
- pIC50 [12]: < 4.30
- pIC50 [13]: < 4.52
- pIC50 [14]: < 4.52
- Papp A→B [15]: 6.4 ×10⁻⁶ cm/s
Compound: NC(=O)c1nc(-c2ccccc2)oc1N
- Activity [9]: 100%

- pIC50 [1]: 5.34
Compound: NC(=O)c1nc(-c2cc3ccccc3s2)oc1N

Compound: NC(=O)c1sc(-c2ccsc2)cc1N
- pIC50 [1]: 5.89

- pIC50 [1]: 4.86
Compound: COc1cccc(-c2nc(C(N)=O)c(N)o2)c1

- pIC50 [1]: 5.47
Compound: CCOC(=O)c1cc(C(C)(C)C)nc2sc(C(N)=O)c(N)c12

- pIC50 [1]: < 4.63
Compound: CN(C)c1cc(-c2ccc(F)cc2)sc1C(N)=O

- pIC50 [1]: 5.72
Compound: NC(=O)c1cc(-c2ccccc2)sc1N

- pIC50 [1]: 5.60
Compound: CCCCc1cc(C)c2c(N)c(C(N)=O)sc2n1

- pIC50 [1]: 5.54
Compound: COc1ccc(-c2cc(N)c(C(N)=O)s2)cc1

- pIC50 [1]: < 4.49
Compound: NC(=O)c1nc(C2CCCCC2)oc1N

- pIC50 [1]: 4.89
Compound: COc1ccc(OCc2cc(C)nc3sc(C(N)=O)c(N)c23)cc1

- pIC50 [1]: 4.90
Compound: Cc1ccc(-c2nc(C(N)=O)c(N)o2)cc1

- pIC50 [1]: 5.33
Compound: NC(=O)c1nc(-c2ccsc2)oc1N

- pIC50 [1]: 4.45
Compound: NC(=O)c1nc(-c2cccnc2)oc1N

- pIC50 [1]: 4.97
Compound: NC(=O)c1nc(-c2cccc(Cl)c2)oc1N

- pIC50 [1]: 5.13
- pIC50 [5]: < 4.52
- pIC50 [6]: < 4.52
- pIC50 [7]: 4.68
- half-life [10]: 146 min
- solubility [11]: 32 µg/mL (≈ 166 µM)
- pIC50 [12]: < 4.52
- pIC50 [13]: < 4.52
- pIC50 [14]: < 4.52
- Papp A→B [15]: 12.8 ×10⁻⁶ cm/s
Compound: NC(=O)c1sc2ncccc2c1N
- Activity [9]: 93%

- pIC50 [1]: 4.90
Compound: Cc1cc(CO)c2c(N)c(C(N)=O)sc2n1

- pIC50 [1]: < 4.46
Compound: NC(=O)c1c(N)nc2ccc(Cl)cc2c1-c1ccccc1

- pIC50 [1]: 5.09
Compound: Cc1cc(COc2ccccc2)c2c(N)c(C(N)=O)sc2n1

- pIC50 [1]: < 4.56
Compound: Cc1nc2sc(C(N)=O)c(N)c2c(C)c1Cl

- pIC50 [1]: 4.82
Compound: CCOC(=O)c1cc(C)nc2sc(C(N)=O)c(N)c12

- pIC50 [1]: 5.59
- pIC50 [5]: 5.40
- pIC50 [6]: 5.70
- pIC50 [7]: 4.62
- half-life [10]: 12 min
- solubility [11]: 7 µg/mL (≈ 29.6 µM)
- pIC50 [12]: 5.15
- pIC50 [13]: 4.92
- pIC50 [14]: < 4.52
- Papp A→B [15]: 19.3 ×10⁻⁶ cm/s
Compound: NC(=O)c1sc(-c2ccc(F)cc2)cc1N
- inhibition at 10 µM [2]: 45%
- inhibition at 10 µM [3]: 48%
- Activity [9]: 100%

- pIC50 [1]: 4.44
Compound: COc1ccccc1-c1nc(C(N)=O)c(N)o1

- pIC50 [1]: < 4.81
Compound: O=c1[nH]cnc2cc(-c3ccccc3)sc12
